Assay results as given in US6632797B2, “Method of treating angiogenesis” (priority 1996, dated 2003).

Key:
[1] = system: acetic acid-induced writhes; test: Acetic acid writhing test (analgetic effect); type: in vivo, mice; details: 64 mg/kg intravenous, sodium salt; 10-minute observation
Description: Two groups of mice, 10 animals per group, were used in order to investigate the analgetic effect of methyl α-D-rhamnopyranoside-2,3,4-trisphosphate (PP 35-406). The control group was given an intravenous dose of saline while the other group was given a dose of 64 mg/kg of the sodium salt of PP 35-406. Three minutes after intravenous dosing, each […] received an intraperitoneal injection of 1 ml of a 1% (w/w) solution of acetic acid. Directly after that procedure each animal was placed into individual observation chambers and the numbers of writhes elicited during the subsequent 10-minute period were recorded. After the observation period the animals were killed by cervical dislocation. The number of writhes during the observation period is an expression of the pain experienced by the animal. Percent protection was calculated as follows: […]((number of writhes in control group—number of writhes in treated animals)/(number of writhes in control group).

[2] = system: carrageenan-induced inflammation; test: Carrageenan-induced paw inflammation in mice (plethysmometer); type: in vivo; details: intravenous injection before carrageenan (64 mg/kg stated for PP35-405); after 3.5 hrs
Description: Growth factors are implicated to participate in inflammatory conditions. Carrageenan (0.1 ml, 1%) was injected intraplantarly in one hind paw of two groups of mice, five animals in each group.
An intravenous injection of 64 mg/kg of 1,2-O-ethylene-β-D-fructopyranoside-2,3,4-trisphosphate (PP35-405) was administered immediately before the injection of carrageenan.
Injection of carrageenan induces inflammation which is measured by comparing the increase in paw volume using a plethysmometer.
In a procedure similar to the one described in Example 8, an intravenous injection of 1,5-dideoxy-1,5-imino-N-(2-phenylethyl)arabinitol-2,3,4-trisphosphate (PP35-508) was administered.
In a procedure similar to the one described in Example 8, an intravenous injection of myo-inositol-1,2,6-tris(carboxymethyl phosphonate) (PP40-402) was administered. 3.5 hrs after the injection of carrageenan the inflammation was retarded with 32% in the group recieving PP40-402. Thus the administration of PP40-402 markedly reduces the inflammatory condition.

[3] = system: HIV (viral isolates from HIV-infected patients) in peripheral blood mononuclear cells (PBMC); test: HIV infection of PBMC, HIV-antigen production by ELISA; type: cell-based; details: normalized HIV-antigen production at day 7, control 100
Description: Growth factor activity is considered to be involved in the process of viral infections. Viral isolates from HIV-infected patients were used in order to induce an infection by adding peripheral blood mononuclear cells (PBMC) to a medium containing different concentrations of the sodium salt of D-3,4,5-tri-O-hexanoyl-myo-inositol-1,2,6-trisphosphate (PP10-202). 25 CCID50 (50% cell culture infections dose) of PBMC from HIV-infected patients were incubated with four different concentrations of PP10-202; 0.0625 mg/ml, 0.125 mg/ml, 0.250 mg/ml and 0.500 mg/ml. Another preparation, without any PP10-202 served as a control. The growth medium consisted of 10% fetal calf serum, […] glutamine, 100 IU/ml penicillin, 100 IU/ml streptomycin and 20 μg/ml gentamicin. The concentration of cells were 2×10^5 per ml. All preparations were incubated for 1 hour at 37° C.
PBMCs from healthy donors were then added to the preparation. Before addition, these cells were stimulated for three days with phytohemagglutinin (PHA). 0.5×10^6 PHA-stimulated PBMCs were added to each preparation, followed by incubation for 3 hours at 37° C. After extensive washing the cells were resuspended in growth medium supplemented with 10 IU/ml of interleukin-2 and seeded in quadruplicates of 100.000 cells in a 96-well microtite plate before further cultivation for 7 days. The HIV-antigen production was assayed at the seventh day using an ELISA-technique.

[4] = Binding constants to the polyamine spermine; type: physicochemical; details: 1:1:5 complex; 0.1 M N-tetramethylbromide at 25° C.
Description: The interaction between a polyamine, spermine and different triphosphorylated compounds were investigated in order to determin the binding constants. Spermine is a basic polyamine comprising domains of similar basicity to basic domains in growth factors. Spermine and the different phosphorylated compounds forms different complexes and the 1:1:5 complex was used as the complex for determination of binding constants.
The following binding constants, log Ks was determined in 0.1 M N-tetramethylbromide at 25° C.: […]

[5] = system: phosphatidyl inositol 3′ kinase (PI 3′-kinase); test: Interstitial fluid pressure (PIF) in rat hind paw, wortmannin-induced decrease; type: in vivo, Wistar Möller rats; set-up: PIF (interstitial fluid pressure): dose or concentration left out as unconfirmed; details: wortmannin in DMSO/saline, 5 μl subdermally; after 30 minutes; vehicle ca −0.7 mm Hg
Excerpt: The enzyme phosphatidyl inositol 3′ kinase (PI 3′-kinase) is implicated in a number of growth factor induced responses such as mitogenesis, chemotaxis, membrane ruffling and the balance between osteoclasts and osteoblasts. Furthermore it is known that inactivation of PI 3′ kinase leads to increased oedema formation expressed as a decrease of interstitial fluid pressure (PIF) in animal models.
An inhibitor of PI 3′ kinase such as wortmannin renders a decrease of PIF as a consequence of inactivation of PI 3′ kinase.
The measurements were performed on female Wistar Möller rats (200-250 g), anesthetized with pentobarbital (50 mg/kg i.p.).
PIF was measured on the dorsal side of the hind paw with sharpened glass capillarier (tip diameter 2-7 μm) filled with 0.5 M NaCl coloured with Evans Blue and connected to a serve-controlled counter pressure system. The punctures were performed through intact skin using a stereomicroscope. The pipette-tip was located 0.3-0.5 mm below the skin. Pressure measurements were made 2.5-3.0 mm from the center of injection. The normal transcapillary pressure gradient is about 0.5 mm Hg.
Three sets of experiments were performed with six animals in each set.
In the first set of experiment the vehicle for wortmannin, DMSO diluted in saline, 5 μl, was injected subdermally using a chromatography syringe. […]

| Compound | inflammation retarded (increase in paw volume) [2] [%] | log Ks [4] | further results |
| --- | --- | --- | --- |
| CO[C@H]1O[C@H](C)[C@@H](OP(=O)(O)O)[C@H](OP(=O)(O)O)[C@@H]1OP(=O)(O)O [PP 35-406, methyl α-D-rhamnopyranoside-2,3,4-trisphosphate] | – | – | Percent protection (number of writhes) [1]: 19% |
| 1,2-O-ethylene-β-D-fructopyranoside-2,3,4-trisphosphate [PP35-405] | 51 | – | – |
| O=P(O)(O)OC1CN(CCc2ccccc2)CC(OP(=O)(O)O)C1OP(=O)(O)O (stereo not drawn) [PP35-508, 1,5-dideoxy-1,5-imino-N-(2-phenylethyl)arabinitol-2,3,4-trisphosphate] | 27 | – | – |
| O=C(O)CP(=O)(O)OC1C(O)C(O)C(O)C(OP(=O)(O)CC(=O)O)C1OP(=O)(O)CC(=O)O (stereo not drawn) [PP40-402, myo-inositol-1,2,6-tris(carboxymethyl phosphonate)] | 32 | – | – |
| CCCCCC(=O)O[C@@H]1[C@@H](OC(=O)CCCCC)[C@@H](OP(=O)(O)O)[C@@H](OP(=O)(O)O)[C@H](OP(=O)(O)O)[C@H]1OC(=O)CCCCC [PP10-202, D-3,4,5-tri-O-hexanoyl-myo-inositol-1,2,6-trisphosphate] | – | 4.20 | HIV-infection ([3]; 0.0625 mg/ml): 75%; HIV-infection ([3]; 0.125 mg/ml): 41%; HIV-infection ([3]; 0.250 mg/ml): 33%; HIV-infection ([3]; 0.500 mg/ml): 20% |
| COC[C@H]1OC(=O)c2coc3c2[C@@]1(C)C1=C(C3=O)[C@@H]2CCC(=O)[C@@]2(C)C[C@H]1OC(C)=O [wortmannin, reference compound] | – | – | PIF (interstitial fluid pressure) [5]: −2.5 mm Hg |
| O=C(Nc1ccccc1)O[C@@H]1[C@@H](OC(=O)Nc2ccccc2)[C@@H](OP(=O)(O)O)[C@@H](OP(=O)(O)O)[C@H](OP(=O)(O)O)[C@H]1OC(=O)Nc1ccccc1 [PP11-201, D-3,4,5-tri-O-phenylcarbamoyl-myo-inositol-1,2,6-trisphosphate] | – | 4.71 | – |
| Methyl-6-O-butyl-α-D-mannopyranoside 2,3,4-trisphosphate [PP35-402] | – | 5.36 | – |
